pIC50, pKi: −log10 of the molar value. Values belong to the molecule of their own block, whether it stands above or below them.
What was measured:
[1] = molecular target: T1, CMP-N-acetylneuraminate-beta-1,4-galactoside alpha-2,3-sialyltransferase (Rattus norvegicus, UniProt Q02734); experiment: Inhibition of rat recombinant alpha 2,3-(N)-sialyltransferase 3
T1 sequence (Q02734 whole entry): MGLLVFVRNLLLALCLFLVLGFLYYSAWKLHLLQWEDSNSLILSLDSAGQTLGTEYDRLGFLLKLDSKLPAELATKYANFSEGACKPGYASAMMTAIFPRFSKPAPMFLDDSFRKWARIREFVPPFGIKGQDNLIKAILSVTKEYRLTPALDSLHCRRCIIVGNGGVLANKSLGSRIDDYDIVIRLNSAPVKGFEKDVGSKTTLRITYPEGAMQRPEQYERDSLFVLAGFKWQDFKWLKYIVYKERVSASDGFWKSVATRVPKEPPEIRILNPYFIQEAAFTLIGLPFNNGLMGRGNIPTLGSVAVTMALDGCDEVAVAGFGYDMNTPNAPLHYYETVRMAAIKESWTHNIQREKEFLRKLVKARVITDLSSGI

[2] = Inhibition of alpha-(1,6)-fucosyltransferase after 60 mins by Lineweaver-Burke plot analysis
[3] = Inhibition of alpha-(1,3)-fucosyltransferase after 60 mins by Lineweaver-Burke plot analysis

Description for Rattus norvegicus: Inhibition of rat recombinant alpha 2,6-(N)-sialyltransferase 1 by Lineweaver-Burke plot analysis

pIC50 [1]: 5.09 | Km (Rattus norvegicus): 125 µM
Compound: C[C@]12CC[C@@H]3c4ccc(O)cc4CC[C@H]3[C@@H]1CC[C@@]2(O)c1cn(CC(=O)N[C@H]2[C@H]([C@H](O)[C@H](O)CO)O[C@](OP(=O)(O)OC[C@H]3O[C@@H](n4ccc(N)nc4=O)[C@H](O)[C@@H]3O)(C(=O)O)C[C@@H]2O)nn1

pKi [2]: 4.86
Compound: CCCCCc1ccc(-c2cn(C[C@@H]3O[C@H](OP(=O)(O)OP(=O)(O)OC[C@H]4O[C@@H](n5cnc6c(=O)[nH]c(N)nc65)[C@H](O)[C@@H]4O)[C@@H](O)[C@H](O)[C@@H]3O)nn2)cc1

pKi [3]: 6.53
Compound: C[C@]12CC[C@@H]3c4ccc(O)cc4CC[C@H]3[C@@H]1CC[C@@]2(O)c1cn(C[C@@H]2O[C@H](OP(=O)(O)OP(=O)(O)OC[C@H]3O[C@@H](n4cnc5c(=O)[nH]c(N)nc54)[C@H](O)[C@@H]3O)[C@@H](O)[C@H](O)[C@@H]2O)nn1

From ChEMBL document CHEMBL1212919, “An efficient approach to the discovery of potent inhibitors against glycosyltransferases” (J Med Chem, 2010)
